# Assay results reported in ChEMBL document CHEMBL1144812, “Small molecules with structural similarities to siderophores as novel antimicrobials against Mycobacterium tuberculosis and Yersinia pestis” (Bioorg Med Chem Lett, 2008).
# Assays:
# [1] = target: T1, AMP-binding enzyme family protein (Yersinia pestis, UniProt Q56950); assay: Inhibition of Yersinia pestis YbtE assessed as incorporation of [3H]salicyl group to HMWP2 protein
# T1 sequence (Q56950 whole entry): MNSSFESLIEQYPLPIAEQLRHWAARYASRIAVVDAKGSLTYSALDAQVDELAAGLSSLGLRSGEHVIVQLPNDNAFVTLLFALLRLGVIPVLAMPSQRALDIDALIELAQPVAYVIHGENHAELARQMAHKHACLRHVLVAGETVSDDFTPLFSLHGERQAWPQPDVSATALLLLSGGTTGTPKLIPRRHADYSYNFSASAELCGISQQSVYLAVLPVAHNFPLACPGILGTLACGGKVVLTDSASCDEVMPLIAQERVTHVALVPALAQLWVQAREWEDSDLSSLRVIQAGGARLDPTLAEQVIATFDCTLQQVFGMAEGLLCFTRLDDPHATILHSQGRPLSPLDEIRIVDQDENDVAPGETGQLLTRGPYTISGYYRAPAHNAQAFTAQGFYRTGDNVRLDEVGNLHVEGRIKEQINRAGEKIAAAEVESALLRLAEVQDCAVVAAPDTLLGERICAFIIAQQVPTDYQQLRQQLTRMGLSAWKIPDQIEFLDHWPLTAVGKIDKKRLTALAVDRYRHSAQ
# [2] = tested on: Mycobacterium tuberculosis; assay: Antimycobacterial activity against Mycobacterium tuberculosis H37Rv in presence of iron rich GAST-D medium; assay type: functional, organism-based
# [3] = tested on: Mycobacterium tuberculosis; assay: Antimycobacterial activity against Mycobacterium tuberculosis H37Rv in presence of iron deficient GAST-D medium; assay type: functional, organism-based
# Yersinia pestis [4] = assay: Antimicrobial activity against Yersinia pestis KIM6-2082.1+ in presence of iron rich PMH-D medium; assay type: functional, organism-based
# Yersinia pestis [5] = assay: Antimicrobial activity against Yersinia pestis KIM6-2082.1+ in presence of iron limiting PMH-D medium; assay type: functional, organism-based
# Yersinia pestis [6] = assay: Ratio of MIC90 for Yersinia pestis KIM6-2082.1+ in iron rich PMH-D medium to MIC90 for Yersinia pestis KIM6-2082.1+ in presence of iron limiting PMH-D medium; assay type: functional
# [7] = Cytotoxicity against human HeLa cells after 24 hrs; assay type: cell-based; conditions: read-out: CD50
# [8] = tested on: Mycobacterium tuberculosis; assay: Ratio of MIC90 for Mycobacterium tuberculosis H37Rv in iron rich GAST-D medium to MIC90 for Mycobacterium tuberculosis H37Rv in presence of iron limiting GAST-D medium; assay type: functional
smiles,measurement,setting,value
COc1cc([C@@H]2CC(c3ccccc3O)=NN2C(=S)Nc2ccccc2)ccc1O,IC50,[1],0.2 µM
same,IC50,[2],≥ 500 µM
same,MIC90,[2],≥ 500 µM
same,IC50,[3],≥ 500 µM
same,MIC90,[3],≥ 500 µM
same,IC50,Yersinia pestis [4],> 150 µM
same,MIC90,Yersinia pestis [4],> 150 µM
same,IC50,Yersinia pestis [5],2 µM
same,MIC90,Yersinia pestis [5],5 µM
same,Ratio,Yersinia pestis [6],>30
same,CC50 at 24 h,[7],13 µM
Cc1ccc(NC(=S)N2N=C(c3ccccc3O)C[C@H]2c2ccc(O)cc2)cc1,IC50,[1],0.4 µM
same,IC50,[2],≥ 500 µM
same,MIC90,[2],≥ 500 µM
same,IC50,[3],≥ 500 µM
same,MIC90,[3],≥ 500 µM
same,IC50,Yersinia pestis [4],> 9 µM
same,MIC90,Yersinia pestis [4],> 9 µM
same,IC50,Yersinia pestis [5],0.9 µM
same,MIC90,Yersinia pestis [5],3 µM
same,Ratio,Yersinia pestis [6],>3
same,CC50 at 24 h,[7],3 µM
Oc1ccccc1C1=NN(C(=S)Nc2ccccc2)[C@H](c2ccc(Cl)cc2)C1,IC50,[1],0.7 µM
same,IC50,[2],≥ 500 µM
same,MIC90,[2],≥ 500 µM
same,IC50,[3],≥ 500 µM
same,MIC90,[3],≥ 500 µM
same,IC50,Yersinia pestis [4],> 5 µM
same,MIC90,Yersinia pestis [4],> 5 µM
same,IC50,Yersinia pestis [5],0.5 µM
same,MIC90,Yersinia pestis [5],1 µM
same,Ratio,Yersinia pestis [6],>5
same,CC50 at 24 h,[7],5 µM
COc1ccc(NC(=S)N2N=C(c3ccc(O)cc3O)C[C@H]2c2ccc(O)c(OC)c2)cc1,IC50,[1],1 µM
same,IC50,[2],167 µM
same,MIC90,[2],> 250 µM
same,IC50,[3],125 µM
same,MIC90,[3],> 250 µM
same,IC50,Yersinia pestis [4],> 9 µM
same,MIC90,Yersinia pestis [4],> 9 µM
same,IC50,Yersinia pestis [5],0.2 µM
same,MIC90,Yersinia pestis [5],1 µM
same,Ratio,Yersinia pestis [6],>9
same,CC50 at 24 h,[7],31 µM
NC(=S)N1N=C(c2ccccc2O)C[C@H]1c1ccc(O)cc1,IC50,[1],0.5 µM
same,IC50,[2],125 µM
same,MIC90,[2],333 µM
same,IC50,[3],8 µM
same,MIC90,[3],21 µM
same,Ratio,[8],16
same,IC50,Yersinia pestis [4],> 38 µM
same,MIC90,Yersinia pestis [4],> 38 µM
same,IC50,Yersinia pestis [5],> 38 µM
same,MIC90,Yersinia pestis [5],> 38 µM
same,CC50 at 24 h,[7],398 µM
Oc1ccccc1C1=NN(C(=S)Nc2ccccc2)[C@H](c2ccccc2)C1,IC50,[1],0.5 µM
same,IC50,[2],≥ 500 µM
same,MIC90,[2],≥ 500 µM
same,IC50,[3],≥ 500 µM
same,MIC90,[3],≥ 500 µM
same,IC50,Yersinia pestis [4],> 9 µM
same,MIC90,Yersinia pestis [4],> 9 µM
same,IC50,Yersinia pestis [5],> 9 µM
same,MIC90,Yersinia pestis [5],> 9 µM
same,CC50 at 24 h,[7],3 µM
Oc1ccc([C@@H]2CC(c3ccc(O)cc3O)=NN2C(=S)Nc2ccccc2)cc1,IC50,[1],1 µM
same,IC50,[2],> 250 µM
same,MIC90,[2],> 250 µM
same,IC50,[3],167 µM
same,MIC90,[3],> 250 µM
same,IC50,Yersinia pestis [4],> 150 µM
same,MIC90,Yersinia pestis [4],> 150 µM
same,IC50,Yersinia pestis [5],1 µM
same,MIC90,Yersinia pestis [5],2 µM
same,Ratio,Yersinia pestis [6],>75
same,CC50 at 24 h,[7],63 µM
Oc1ccccc1C1=NN(C(=S)Nc2ccccc2)[C@H](c2cccs2)C1,IC50,[1],2 µM
COc1ccc([C@@H]2CC(c3ccccc3O)=NN2C(=S)Nc2ccccc2)cc1,IC50,[1],1 µM
same,IC50,[2],≥ 500 µM
same,MIC90,[2],≥ 500 µM
same,IC50,[3],≥ 500 µM
same,MIC90,[3],≥ 500 µM
same,IC50,Yersinia pestis [4],> 19 µM
same,MIC90,Yersinia pestis [4],> 19 µM
same,IC50,Yersinia pestis [5],0.7 µM
same,MIC90,Yersinia pestis [5],> 19 µM
same,CC50 at 24 h,[7],5 µM
Oc1ccccc1[C@@H]1CC(c2ccccc2)=NN1C(=S)Nc1ccccc1,IC50,[1],> 12.5 µM
same,IC50,[2],42 µM
same,MIC90,[2],167 µM
same,IC50,[3],24 µM
same,MIC90,[3],125 µM
same,Ratio,[8],1
same,IC50,Yersinia pestis [4],> 19 µM
same,MIC90,Yersinia pestis [4],> 19 µM
same,IC50,Yersinia pestis [5],> 19 µM
same,MIC90,Yersinia pestis [5],> 19 µM
same,CC50 at 24 h,[7],19 µM
Oc1ccc(C2=NN(C(=S)Nc3ccccc3)[C@H](c3ccc(O)cc3)C2)cc1,IC50,[1],> 12.5 µM
same,IC50,[2],105 µM
same,MIC90,[2],250 µM
same,IC50,[3],83 µM
same,MIC90,[3],125 µM
same,Ratio,[8],2
same,IC50,Yersinia pestis [4],> 75 µM
same,MIC90,Yersinia pestis [4],> 75 µM
same,IC50,Yersinia pestis [5],> 75 µM
same,MIC90,Yersinia pestis [5],> 75 µM
same,CC50 at 24 h,[7],248 µM
COc1cc([C@@H]2CC(c3ccc(O)cc3O)=NN2C(=S)Nc2ccccc2OC)ccc1O,IC50,[1],0.2 µM
same,IC50,[2],55 µM
same,MIC90,[2],125 µM
same,IC50,[3],51 µM
same,MIC90,[3],125 µM
same,Ratio,[8],1
same,IC50,Yersinia pestis [4],> 38 µM
same,MIC90,Yersinia pestis [4],> 38 µM
same,IC50,Yersinia pestis [5],17 µM
same,MIC90,Yersinia pestis [5],> 38 µM
same,CC50 at 24 h,[7],26 µM
Nc1ncnc2c1ncn2[C@@H]1O[C@H](COS(=O)(=O)NC(=O)c2ccccc2O)[C@@H](O)[C@H]1O,IC50,[1],0.007 µM
